Results taken from patent EP1647279A2, “Inhibition of apoptosis using interleukin-1beta-converting enzyme (ICE)/CED-3 family inhibitors” (priority 1996, dated 1998).
Residues, ends and D or L forms follow the SMILES beside them. *: point of attachment. Cbz = O=C(OCc1ccccc1)*; CH2F = FC*

What was measured:
Assay type in all cases: cell-based
[1] = system: granulocytes in whole blood; test: Whole blood assay: survival of granulocytes by hypodiploid analysis via flow cytometry
Procedure: The following reagents were used: • anti-CD32-FITC monoclonal antibody obtained from Pharmingen. • Lysing Solution (10X Stock: 89.9 g NH4Cl; • 10.0 g KHCO; • 0.37 g tetrasodium EDTA; • dissolve in 1 liter dH2O. Adjust to pH 7.3. Store at 4°C in a tightly closed bottle. • Dilute 1:10 with dH2O prior to use.) • (DPBS without calcium or magnesium obtained from Irivine Scientific. • 2% fetal bovine serum in DPBS stored at 4°C. • 50 µg/ml propidium iodide in DPBS sterile filtered and stored at 4°C.)
The following protocol was followed: • 200 µl blood sample/2.8 ml 1X lysis solution in a 15 ml polypropylene conical tube. • Cap and invert to mix. Leave at room temperature for 3-5 minutes. • Centrifuge in a table-top Sorvall at 1200 rpm for 5 minutes at 4°C. • Aspirate supernate. Resuspend pellet in 200 µl/sample 2% FBS/DPBS. Add 20 µl/sample anti-CD32-FITC. Incubate 30 minutes on ice in the dark. • Add 5 ml/sample DPBS. Centrifuge at 1000 rpm for 5 minutes at 4°C. • Aspirate supemate. Resuspend pellet in 1 ml/sample 2% FBS/DPBS. • Add 3 ml/sample ice-cold 95% EtOH dropwise while vortexing gently. • Incubate samples on ice in the dark for 30 minutes. • Centrifuge at 1000 rpm for 5 minutes at 4°C. • Resuspend each sample in 50 µl 5 mg/ml RN'ase. Transfer sample to 900 µl/sample • 50 µg/ml Propidium Iodide in 12x75 mm Falcon polystyrene tubes. • Incubate on ice for 30 minutes. • Analyze samples by flow cytometry (argon laser) for forward and side scatter and fluorescence.
Survival of granulocytes in whole blood was measured by hypodiploid analysis in a similar fashion to isolated granulocytes via flow cytometry. ICE/ced-3 inhibitors of the present invention maintained survival of granulocytes in whole blood for 96 hours at room temperature as indicated in the table below: Percentage of diploid granulocytes in whole blood

granulocytes [2] = test: Respiratory burst in isolated neutrophils measured by chemiluminescence (opsonized zymosan, lucigenin); details: Figure 7
Procedure: Whole blood anticoagulated with Acid Citrate Dextrose (ACD) with a ratio of 1:5 ACD to blood was collected (150 ml). Neutrophils were isolated as described above.
Opsonized zymosan was prepared by suspending 125 mg zymosan particles in 25 ml pooled human serum (5 mg/ml) and incubating them for 20 minutes at 37°C. Centrifuge the suspension and resuspend the particles in 7 ml of PBS (18 mg/ml) and stored on ice until use (vortex prior to pipetting).
50 ml of a 250 µM solution of Lucigenin (MW 510.5) was prepared by dissolving 6.4 mg of the solid in 50 ml of PBS-G (+ Ca, Mg). 10 µl of PBS-G (+ Ca, Mg) to the wells in a white 96 well plate.
50 µl of the 250 µM Lucigenin solution was added to the wells in a white 96 well plate.
Cell preparations were obatined from cell culture (concentration at time zero= 5.0 x 10^6 cells/ml) with PBS-G (+ Ca, Mg).
20 µl of the neutrophil suspension was suspended to the appropriate wells and the plate was incubated the plate at 37° C for three minutes. 10 µl of the opsonized zymosan was added to the wells.
The plate was read on the luminometer (Labsystems Luminoskan, Needham Heights, MA) for 14 min. at 37° C in the kinetic mode and record results using the software DeltaSoft.
The ability to undergo the respiratory burst is another measure of granulocyte viability. The respiratory burst is a physiological response of granulocytes to foreign stimuli such as bacteria. In this example, the method for inducing the respiratory burst utilized opsonized bacterial zymosan. The respiratory burst was measured via chemiluminescence.

granulocytes [3] = test: Granulocyte survival in culture: analysis of hypodiploid nuclei by flow cytometry (propidium iodide); details: Figure 6; for IC50: isolated granulocytes cultured at 37°C, nuclear hypodiploidy, propidium iodide stain via flow cytometry, read-out: IC50 (effects on granulocyte survival)
Procedure: Whole blood anticoagulated with Acid Citrate Dextrose (ACD) with a ratio of 1:5 ACD to blood was collected (~100 ml).
Using polypropylene plastic ware, neutrophils are isolated as follows: 30 ml of the whole blood is added to 50 ml polypropylene centrifuge tubes containing 15 ml of 6% Dextran (in Saline). The blood is allowed to sediment for approximately 1 hour at room temperature.
The turbid straw colored layer harvested from the top of the cylinders into 50 ml conical polypropylene tubes. The blood cells were pelleted by centrifugation at 240 xg (Sorvall centrifuge at 1200 rpm) for 12 min. at 4°C with the brake on low.
The supernatant was aspirated and the pooled pellet resuspended in 40-50 ml cold PBS (w/o Ca, Mg), and centrifuged at 240 xg (Sorvall centrifuge at 1200 rpm) for 6 min. at 4°C with the brake on high.
The supernatant was aspirated and the pellet resuspended in 12 ml of cold cell culture grade water. The suspension was titriated gently with a pipet for 30 seconds then add 4 ml of cold 0.6 M KCl. (Brought up to 50 ml with cold PBS (w/o Ca, Mg)) and then centrifuged at 300 xg (Sorvall centrifuge at 1400 rpm) for 6 min. at 4°C with the brake on high.
The above was repeated one time.
The supernatant was aspirated and the cells resuspended in 2.5 ml cold PBS (w/o Ca, Mg). The cell suspension was layered over 3 ml Ficoll-Hypaque in a 15 ml polypropylene conical tube and centrifuged at 400 xg (Sorvall centrifuge at 1900 rpm) for 30 min. at 4°C with the brake on low.
The suspension aspirated was down to the neutrophil pellet. […]
The supernatant was aspirated and the neutrophil pellet resuspended in 4.0 ml cold PBS (w/o Ca, Mg) on ice. 10 µl of the neutrophil cell suspension was diluted with 990 µl of Trypan blue (1:100) and cells counted using a hemacytometer. The cell number and viability were determined. […]
• (50 µg/ml propidium iodide (Sigma catalog#P4170); 0.1% Triton X-100; and 0.1% sodium citrate). • Neutrophils were pelleted at 4°C and the supernate aspirated. • Neutrophils were resuspended in hypotonic fluorochrome solution at a density of 5x10^6 cells/ml. Propidium iodide fluorescence of individual nuclei was evaluated in FL2 and measured on a logarithmic scale while gating on physical parameters in forward and side scatter to exlude cell debris.
At least 10,000 events per sample were collected and the results were evaluated relative to a non-apoptotic neutrophil population. […]
The present invention provides methods to enhance the ex vivo survival of neutrophils/granulocytes. […] The presence of hypodiploid DNA is a measure of apoptosis, and is assessed using a propidium iodide stain via flow cytometry. […]

[4] = after granulocyte culture for 72 hours
[5] = granulocyte culture for 48 hours

Structure (SMILES)	Percentage of diploid granulocytes in whole blood ([1]; 96 hours at room temperature)	Percentage of diploid granulocytes in whole blood ([1]; time zero, 0 min)	respiratory burst (granulocytes [2]; [4])	respiratory burst (granulocytes [2]; [5])	IC50 (granulocytes [3])	respiratory burst (granulocytes [2]; no time stated)	effect on improving granulocyte survival (granulocytes [3]; isolated granulocytes in culture, at 48 hours)
Cc1c(C(=O)N[C@H](C(=O)NC(CC(=O)O)C(=O)COC(=O)c2c(Cl)cccc2Cl)C(C)C)n(C)c2ccccc12 (stereo partly shown) [Example 70, N-[N-(1,3-Dimethyl-indole-2-carbonyl)-Valinyl]-3-amino-5-(2,6-dichlorobenzoyl)oxy-4-oxo-pentanoic acid]	89%	96%	partially maintained	substantially maintained	< 5 µM	–	–
Cc1c(C(=O)N[C@H](C(=O)NC(CC(=O)O)C(=O)CF)C(C)C)n(C)c2ccccc12 (stereo partly shown) [Example 43, N-[(1,3-Dimethylindole-2-Carbonyl)Valinyl]-3-Amino-4-Oxo-5-Fluoropentanoic Acid]	91%	96%	partially maintained	substantially maintained	< 5 µM	–	–
O=C(O)CC(NC(=O)[C@@H]1Cc2cccc3c2N1C(=O)[C@@H](NC(=O)OCc1ccccc1)CC3)C(=O)CF (relative stereo) [Example 106]	–	–	–	–	< 5 µM	–	–
COC(=O)C[C@H](NC(=O)[C@H](C)NC(=O)[C@@H](NC(=O)OCc1ccccc1)C(C)C)C(=O)CF [zVADfmk, reference compound] (Cbz-Val-Ala-Asp(OMe)-CH2F)	–	–	–	–	–	did not maintain the respiratory burst	weak effect
